In the assay the target is T1, Tankyrase 1 (Homo sapiens, UniProt O95271).
T1 sequence (O95271 1-1327): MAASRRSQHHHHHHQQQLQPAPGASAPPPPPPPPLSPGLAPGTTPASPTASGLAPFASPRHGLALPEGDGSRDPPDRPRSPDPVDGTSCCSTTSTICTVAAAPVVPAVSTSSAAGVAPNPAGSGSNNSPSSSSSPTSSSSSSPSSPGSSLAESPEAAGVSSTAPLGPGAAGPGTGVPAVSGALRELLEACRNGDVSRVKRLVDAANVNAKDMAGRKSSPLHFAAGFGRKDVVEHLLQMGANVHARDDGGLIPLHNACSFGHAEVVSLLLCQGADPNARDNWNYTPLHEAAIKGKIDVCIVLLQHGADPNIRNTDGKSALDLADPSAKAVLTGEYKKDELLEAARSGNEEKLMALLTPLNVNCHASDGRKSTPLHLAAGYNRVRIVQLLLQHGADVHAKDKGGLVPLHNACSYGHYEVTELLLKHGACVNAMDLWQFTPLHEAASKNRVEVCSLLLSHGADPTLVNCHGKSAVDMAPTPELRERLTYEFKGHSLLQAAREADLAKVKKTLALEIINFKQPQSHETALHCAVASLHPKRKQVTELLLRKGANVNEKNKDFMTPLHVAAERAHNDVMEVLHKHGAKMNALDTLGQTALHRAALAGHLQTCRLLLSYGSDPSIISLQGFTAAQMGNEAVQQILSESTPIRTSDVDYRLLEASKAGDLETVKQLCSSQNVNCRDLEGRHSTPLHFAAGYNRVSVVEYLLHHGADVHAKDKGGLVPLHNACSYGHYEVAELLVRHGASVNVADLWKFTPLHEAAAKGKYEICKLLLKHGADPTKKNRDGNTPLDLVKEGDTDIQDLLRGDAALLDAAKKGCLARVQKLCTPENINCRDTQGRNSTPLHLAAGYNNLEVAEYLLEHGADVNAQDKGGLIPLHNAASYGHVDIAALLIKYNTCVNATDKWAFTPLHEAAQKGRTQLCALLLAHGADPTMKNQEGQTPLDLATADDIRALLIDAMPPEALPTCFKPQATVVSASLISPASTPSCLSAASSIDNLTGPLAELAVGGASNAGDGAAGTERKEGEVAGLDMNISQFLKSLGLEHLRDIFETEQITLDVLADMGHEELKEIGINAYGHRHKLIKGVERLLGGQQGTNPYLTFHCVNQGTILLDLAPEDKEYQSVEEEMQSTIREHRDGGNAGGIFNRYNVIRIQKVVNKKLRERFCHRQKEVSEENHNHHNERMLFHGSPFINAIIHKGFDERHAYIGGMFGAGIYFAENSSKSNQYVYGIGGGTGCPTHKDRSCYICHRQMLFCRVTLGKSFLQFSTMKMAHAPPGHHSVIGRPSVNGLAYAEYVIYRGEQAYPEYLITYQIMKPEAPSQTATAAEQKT
The assay is described as follows: TNKS1 NAM assay (NADase activity, released nicotinamide by LC-MS). To be noted: Table I, value marked with superscript 2 (footnote not given), taken as the second assay. Type of assay: biochemical. How it is done: NADase activity of Tankyrase 1 was measured by quantifying released nicotinamide using liquid chromatography mass spectrometry. Varying concentrations of experimental compounds were incubated in 10 μL reactions containing 25 nM recombinant Tankyrase 1, 1 mM NAD+, 5 μM d4-nicotinamide internal standard, 2% DMSO, 50 mM Tris pH 7.5, 5 mM CaCl2, and 0.01% Triton X-100 for 1 h at RT. Reactions were quenched by mixing 2 μL of the reaction mixture with 98 μL of 0.05% formic acid. 1 μL of quenched reaction was loaded onto a reverse phase BEH-Phenyl column (Waters) pre-equilibrated with 1 mM ammonium formate and eluted with a linear gradient to 80% acetonitrile. Compound IC50s were determined by four-parameter curve fitting.
Representative compound data for assays are listed below in Table I. Values are in uM.

In general, IC50 refers to the concentration needed to halve the response being measured. Take `COCCOc1cc(F)c(N2CCN(c3nc4c(ccn4CCO)c(=O)[nH]3)CC2)c(F)c1` [Example 63, 2-[4-[2 6-difluoro-4-(2-methoxyethoxy)phenyl]piperazin-1-yl]-7-(2-hydroxyethyl)-3H-pyrrolo[2,3-d]pyrimidin-4-one]: the half-inhibitory concentration (IC50) was 9.67 nM.

Values taken from patent US8722661B2, “Pyrrolopyrimidone and pyrrolopyridone inhibitors of tankyrase” (Genentech, Inc., priority 2012, dated 2014).
